According to PubChem BioAssay AID1963837 (Molecular Pharmacology Branch, DTP, NCI, 2024):
Several values for one entry are separate records, joined by “and”; a condition that tells them apart may be missing. Equal values may be shown once.

Tested on: 843126-344-R-J1-PDC complex spheroid viability
Test: Anticancer human tumor 843126-344-R-J1-PDC patient-derived melanoma cell line growth inhibition [POLQ]
Details: for viability, T/C: stronger effect = lower value
Description: Multicellular complex tumor spheroid response to Polymerase (POL) inhibitors (novobiocin, ART-558, RP6685) in combination with a variety of drugs and investigational agents in selected tumor cell lines
The POL inhibitors (novobiocin, ART-558, and RP6685) were evaluated both individually and in combination with standard of care and investigational anticancer small molecules within a complex spheroid model of solid tumors. . Complex spheroids include a stromal component modeled by human endothelial cells (HUVEC) and fibroblasts modeled by human mesenchymal stem cells (MSCs). The concentration ranges selected for each drug and investigational agent were based upon clinically achievable concentrations if the clinical Cmax of the agent was known.
Compounds. The drugs and investigational agents: novobiocin (NSC847541), ART-558 (NSC835418), RP-6685 (NSC848927), peposertib (NSC802822), ceralasertib (NSC780249), elimusertib (NSC800525), camonsertib (NSC841442), AZD-1390 (NSC803789), olaparib (NSC753686), talazoparib (NSC767125), rucaparib (NSC756644), sotorasib (NSC818433), MRTX-1133 (NSC836407), SN-38 (NSC673596), topotecan (NSC609699), epotoside (NSC141540), doxorubicin (NSC123127), gemcitabine (NSC613327), 5-fluorouracil (NSC19893), paclitaxel (NSC125973), vemurafenib (NSC761431), MSA-2 (NSC828583), SN-011 (NSC837082), adavosertib (NSC754352), prexasertib (NSC758257), carboplatin (NSC241240) and oxaliplatin (NSC266046), were obtained from the National Cancer Institute (NCI) Developmental Therapeutics Program Chemical Repository (21). The FDA-approved anticancer drug set is available from the Developmental Therapeutics Program at https://dtp.cancer.gov/organization/dscb/obtaining/. […] The stock solutions were prepared in dimethyl sulfoxide (DMSO, Sigma-Aldrich, St. Louis, MO, cat. D2650), except for the platinum compounds which were prepared in saline (Quality Biological, Gaithersburg, MD, cat. 114-055-101), at 800-fold the tested concentration and stored at -70 degrees C prior to their use. All drugs and investigational agents were tested over a range starting from a high concentration at or near the clinical Cmax and decreasing in half-log increments. If the clinical Cmax for an agent had not been determined, the highest concentration tested was 10 microM, except for SN-38, which was tested at a high concentration of 1 microM.
Cell Culture. All cells were maintained in an incubator at 37 degrees C and 5% CO2 with 95% humidity. The PDC lines were cultured according to standard operating procedures established by the NCI PDMR (https://pdmr.cancer.gov). Table 3 of the manuscript, lists the cell lines along with the number of the three cell types plated to form the mct-spheroids and media for tumor cell growth. After thawing, all PDC lines, except 997537-175-T-J1-PDC and 415267-285-R-J2-PDC, were cultured in Matrigel-coated flasks prepared with a working solution of 1X Ham's F-12 nutrient mix, without supplementation (Thermo Fisher Scientific, cat. 11765054), 100 U/mL penicillin-streptomycin (Thermo Fisher Scientific, cat. 15140122), and 2.5% Matrigel (Corning Inc., Corning, NY, cat. 354248) for the first three passages. The two PDC lines 997537-175-T-J1-PDC and 415267-285-R-J2-PDC were cultured on uncoated flasks. The 857933-349-R-J2-PDC line was cultured in 6C/Colon 1B media containing advanced DMEM/F-12 (Thermo Fisher Scientific, cat. 12634028), 10 mM HEPES (Thermo Fisher Scientific, cat. 15630080), 1X GlutaMAX supplement (Thermo Fisher Scientific, cat. 35050061), 0.1 mg/mL primocin (InvivoGen, San Diego, CA, cat. ant-pm-2), 10% defined fetal bovine serum, heat inactivated (HyClone Laboratories Inc., Logan, UT, cat. SH30070.03HI), 50% L-WRN conditioned media (ATCC, cat. CRL-3276), 1.25 mM N-Acetyl-L-cysteine (Sigma-Aldrich, cat. A9165), 10 mM nicotinamide (Sigma-Aldrich, cat. N0636), 1X B-27 supplement (Thermo Fisher Scientific, cat. 17504044), 1X N-2 supplement (Thermo Fisher Scientific, cat. […]

[1] = curve of first compound, second compound 0.0316 µM
[2] = curve of first compound, second compound 0.1 µM
[3] = curve of first compound, second compound 0.316 µM
[4] = curve of first compound, second compound 1 µM
[5] = curve of first compound, second compound 3.16 µM
[6] = curve of first compound, second compound 10 µM
[7] = second compound 0.0316 µM, first compound 0.0316 µM
[8] = second compound 0.0316 µM, first compound 0.1 µM
[9] = second compound 0.0316 µM, first compound 0.316 µM
[10] = second compound 0.0316 µM, first compound 1 µM
[11] = second compound 0.0316 µM, first compound 3.16 µM
[12] = second compound 0.0316 µM, first compound 10 µM
[13] = second compound 0.1 µM, first compound 0.0316 µM
[14] = second compound 0.1 µM, first compound 0.1 µM
[15] = second compound 0.1 µM, first compound 0.316 µM
[16] = second compound 0.1 µM, first compound 1 µM
[17] = second compound 0.1 µM, first compound 3.16 µM
[18] = second compound 0.1 µM, first compound 10 µM
[19] = second compound 0.316 µM, first compound 0.0316 µM
[20] = second compound 0.316 µM, first compound 0.1 µM
[21] = second compound 0.316 µM, first compound 0.316 µM
[22] = second compound 0.316 µM, first compound 1 µM
[23] = second compound 0.316 µM, first compound 3.16 µM
[24] = second compound 0.316 µM, first compound 10 µM
[25] = second compound 1 µM, first compound 0.0316 µM
[26] = second compound 1 µM, first compound 0.1 µM
[27] = second compound 1 µM, first compound 0.316 µM
[28] = second compound 1 µM, first compound 1 µM
[29] = second compound 1 µM, first compound 3.16 µM
[30] = second compound 1 µM, first compound 10 µM
[31] = second compound 3.16 µM, first compound 0.0316 µM
[32] = second compound 3.16 µM, first compound 0.1 µM
[33] = second compound 3.16 µM, first compound 0.316 µM
[34] = second compound 3.16 µM, first compound 1 µM
[35] = second compound 3.16 µM, first compound 3.16 µM
[36] = second compound 3.16 µM, first compound 10 µM
[37] = second compound 10 µM, first compound 0.0316 µM
[38] = second compound 10 µM, first compound 0.1 µM
[39] = second compound 10 µM, first compound 0.316 µM
[40] = second compound 10 µM, first compound 1 µM
[41] = second compound 10 µM, first compound 3.16 µM
[42] = second compound 10 µM, first compound 10 µM
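For viability, T/C in this document: spheroids exposed to drugs for seven days before readout.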

COc1cc2cc(C(=O)CCC(=O)O)sc2cc1OC + Cc1cccc(N(C)C(=O)C2C(O)CCN2c2nc(C)cc(C(F)(F)F)c2C#N)c1
IC50 [1]: > 10 µM
IC50 [2]: > 10 µM
IC50 [3]: > 10 µM
IC50 [4]: > 10 µM
IC50 [5]: > 10 µM
IC50 [6]: > 10 µM
viability, T/C [7]: 95.8%
viability, T/C [8]: 83.5%
viability, T/C [9]: 95.1%
viability, T/C [10]: 98.8%
viability, T/C [11]: 96.4%
viability, T/C [12]: 92.4%
viability, T/C [13]: 91.1%
viability, T/C [14]: 91.4%
viability, T/C [15]: 84.9%
viability, T/C [16]: 83.7%
viability, T/C [17]: 94.4%
viability, T/C [18]: 85.2%
viability, T/C [19]: 97.2%
viability, T/C [20]: 92.4%
viability, T/C [21]: 90.1%
viability, T/C [22]: 96.6%
viability, T/C [23]: 88.8%
viability, T/C [24]: 89%
viability, T/C [25]: 81.7%
viability, T/C [26]: 84.2%
viability, T/C [27]: 88.1%
viability, T/C [28]: 93.5%
viability, T/C [29]: 91.8%
viability, T/C [30]: 86.4%
viability, T/C [31]: 89.9%
viability, T/C [32]: 83%
viability, T/C [33]: 98.5%
viability, T/C [34]: 98.4%
viability, T/C [35]: 96.3%
viability, T/C [36]: 82.3%
viability, T/C [37]: 95.7%
viability, T/C [38]: 90.6%
viability, T/C [39]: 92.1%
viability, T/C [40]: 89.7%
viability, T/C [41]: 90.9%
viability, T/C [42]: 86.1%

CC(C)n1c(=O)n(C)c2cnc3cc(F)c(-c4ccc(OCCCN5CCCCC5)nc4)cc3c21
viability, T/C (compound 0.0316 µM): 88.2% and 82.8% and 83.5%
viability, T/C (compound 0.1 µM): 74.9% and 88.6% and 77.2%
viability, T/C (compound 0.316 µM): 89% and 79.8% and 78.8%
viability, T/C (compound 1 µM): 86.1% and 87.7% and 92.9%
viability, T/C (compound 3.16 µM): 72.1% and 79.5% and 84.4%
viability, T/C (compound 10 µM): 72.5% and 79.1% and 55.2%
IC50 (curve of compound): > 10 µM

Cn1ncnc1[C@H]1c2n[nH]c(=O)c3cc(F)cc(c23)N[C@@H]1c1ccc(F)cc1
viability, T/C (compound 0.000316 µM): 85.9% and 104% and 97.7%
viability, T/C (compound 0.001 µM): 103% and 90.3% and 99.6%
viability, T/C (compound 0.00316 µM): 103% and 95% and 84.3%
viability, T/C (compound 0.01 µM): 86.2% and 97.3% and 92.6%
viability, T/C (compound 0.0316 µM): 86.9% and 122% and 88.4%
viability, T/C (compound 0.1 µM): 84.2% and 90.4% and 88%
IC50 (curve of compound): > 0.1 µM

C=CCn1c(=O)c2cnc(Nc3ccc(N4CCN(C)CC4)cc3)nc2n1-c1cccc(C(C)(C)O)n1
viability, T/C (compound 0.00316 µM): 101% and 96.6% and 95.3%
viability, T/C (compound 0.01 µM): 89.5% and 86.3% and 96.3%
viability, T/C (compound 0.0316 µM): 95.7% (2×) and 111%
viability, T/C (compound 0.1 µM): 109% and 97.8% and 99.3%
viability, T/C (compound 0.316 µM): 91.6% and 93.7% and 98.2%
viability, T/C (compound 1 µM): 81.1% and 78.6% and 82.7%
IC50 (curve of compound): > 1 µM

COC1C(OC(N)=O)C(O)C(Oc2ccc3c(O)c(NC(=O)c4ccc(O)c(CC=C(C)C)c4)c(=O)oc3c2C)OC1(C)C (configuration not stated)
viability, T/C (compound 1 µM): 92% [middle of 13 runs]
IC50 (compound alone, run of 01/08/2024): > 10 µM

Nc1ccn(C2OC(CO)C(O)C2(F)F)c(=O)n1 (configuration not stated) + Nc1ccc(C#CCN(C(=O)Cc2ncc(C(F)(F)F)cc2C(F)(F)F)c2ccc(F)cc2)nn1
IC50 [1]: < 0.0316 µM
IC50 [2]: < 0.0316 µM
IC50 [3]: < 0.0316 µM
IC50 [4]: < 0.0316 µM
IC50 [5]: < 0.0316 µM
IC50 [6]: < 0.0316 µM
viability, T/C [7]: 36.5%
viability, T/C [8]: 35.5%
viability, T/C [9]: 38.9%
viability, T/C [10]: 38%
viability, T/C [11]: 37.6%
viability, T/C [12]: 35%
viability, T/C [13]: 43%
viability, T/C [14]: 41.8%
viability, T/C [15]: 38.7%
viability, T/C [16]: 39.8%
viability, T/C [17]: 38.5%
viability, T/C [18]: 41.8%
viability, T/C [19]: 48.2%
viability, T/C [20]: 38.5%
viability, T/C [21]: 36%
viability, T/C [22]: 38%
viability, T/C [23]: 38.9%
viability, T/C [24]: 37.3%
viability, T/C [25]: 36.3%
viability, T/C [26]: 35.3%
viability, T/C [27]: 46.5%
viability, T/C [28]: 35%
viability, T/C [29]: 38.2%
viability, T/C [30]: 29.6%
viability, T/C [31]: 36.4%
viability, T/C [32]: 35.2%
viability, T/C [33]: 39.9%
viability, T/C [34]: 36.2%
viability, T/C [35]: 37.5%
viability, T/C [36]: 36.5%
viability, T/C [37]: 39.5%
viability, T/C [38]: 38.1%
viability, T/C [39]: 32.8%
viability, T/C [40]: 39.9%
viability, T/C [41]: 31.2%
viability, T/C [42]: 42.6%
